Measurements: patent US7282339B2, “Competitive immunoassay” (Invitrogen Corporation, priority 2003, dated 2007)

Key:
[1] = test system: P-Tyr-100 antiphosphotyrosine monoclonal antibody; experiment: Ligand analog screening: fluorescence intensity and polarization vs P-Tyr-100 antibody concentration (Examples 22, 24); type: binding, mouse; conditions: for Fmax/Fmin: ratio of fluorescence intensity at lowest (Fmax) to highest (Fmin) antibody concentration, 50 nM ligand analog, P-Tyr-100 0.8 to 500 nM, ex/em 480/535 nm
Protocol: Solutions of test compounds (100 nM) were prepared were prepared in 50 mM Tris-HCl pH 7.5, 10 mM MgCl2, 0.01% Brij-35, 500 μM ATP, 2 mM DTT, 1 mM EGTA. 20 μl aliquots of these solutions were pipetted into the wells of a 384-well microplate. 20 μl aliquots of a serially-diluted […] stock solution of P-Tyr-100 antiphosphotyrosine monoclonal antibody (Cell Signaling Technology, Beverly, Mass.) were added to the wells. The resulting samples contained 50 nM of each ligand analog (Compounds 15, 7, 8, 9, 18 and 19) and antibody concentrations ranging from 0.8 to 500 nM. Fluorescence polarization and intensity of the samples was measured on an EnVision microplate reader (PerkinElmer Life Sciences) using excitation/emission filter settings of 480/535 nm. Increasing fluorescence polarization as a function of antibody concentration (A) provides confirmation of ligand analog binding to the antibody. […] Phosphotyrosine peptide, target ligand, (phospho-pp60 c-src (521-533); TSTEPQY*QPGENL, Bachem California, Inc. Torrance, Calif.) was then added to all samples at a concentration of 10 μM and the fluorescence intensity and polarization measurements were repeated (C, D). […] Displacement of the ligand analogs from antibody is confirmed by depolarization of fluorescence (D compared to A). […] See, FIG. 14.
Compound 12 and Compound 13 were assessed for efficacy using the methods described in Example 22. […] Samples containing 100 nM of Compound 13 and additional components identified in the figure legend were prepared in 50 mM Tris-HCl pH 7.5, 10 mM MgCl2, 0.01% Brij-35, 100 μM ATP, 2 mM DTT, 1 mM EGTA. 100 μL volumes of these samples were transferred to microcuvettes. The fluorescence emission spectrum was recorded for each sample using a Hitachi F-4500 spectrofluorometer (excitation wavelength=520 nm). See, FIG. 15

[2] = test system: Compound 15+P-Tyr-100 complex; experiment: Displacement of phosphotyramide ligand analog by phosphotyrosine peptide but not by ATP (Example 17); type: binding, mouse; conditions: zero to 1 mM ATP
Protocol: A 5 mM solution of Compound 15 was prepared in water. Separate reactions of 100 nM Compound 15+/−100 nM P-Tyr-100 (Cell Signaling Technology, catalog # 9411) complexes were made in kinase buffer with various amounts of ATP (50 mM Tris, pH 7.5, 10 mM MgCl2, 1 mM EGTA, 0.01% Brij 35, 2 mM DTT, with zero, 0.1, 0.25, 0.5, or 1 mM ATP). The fluorescence emission of each of the ten solutions was measured using a Hitachi F-4500 spectrofluorometer (Ex 450, Em 510, slit width 5 nm for both wavelengths, PMT gain 700 V). After the initial read, 10 μM phospho-pp60 c-src (10 μM final concentration) peptide (521-533) (TSTEPQY*QPGENL) (Bachem, catalog # H-3258) in kinase buffer was added to the antibody:ligand reactions, and the resulting fluorescence intensity was measured on the same instrument at the same settings.

[3] = molecular target: P-Tyr-100 anti-phosphotyrosine monoclonal antibody; experiment: Determination of dissociation constants for antibody-ligand complexes (Example 23); type: binding, mouse; conditions: 1 nM test compound, P-Tyr-100 0.02 to 40 nM; fluorescence intensity, single-site saturation fit; read-out: dissociation constant
Protocol: Solutions of Compound 15 and Compound 34 (2 nM) were prepared in 50 mM Tris-HCl pH 7.5, 10 mM MgCl2, 0.01% Brij-35, 500 μM ATP, 2 mM DTT, 1 mM EGTA, 0.5 mg/ml bovine serum albumin. 25 μl aliquots of these solutions were pipetted into the wells of a 384-well microplate. 25 μl aliquots of a serially-diluted 0.08 μM stock solution of P-Tyr-100 anti-phosphotyrosine monoclonal antibody (Cell Signaling Technology, Beverly, Mass.) were added to the wells. The resulting samples contained 1 nM test compound and antibody concentrations ranging from 0.02 to 40 nM. Fluorescence intensities of triplicate samples at each antibody concentration were measured on an EnVision microplate reader (PerkinElmer Life Sciences) using excitation/emission filter settings of 480/535 nm. The mean (n=3) fluorescence intensities were plotted against the corresponding antibody concentrations. Dissociation constants were determined from hyperbolic single-site saturation binding functions fitted to the experimental data by nonlinear regression analysis (SigmaPlot, Jandel Scientific Inc). The dissociation constants obtained were 2.0 nM for Compound 15+P-Tyr-100 and 1.7 nM for Compound 34+P-Tyr-100.

[4] = test system: P-Tyr-100 monoclonal anti-phosphotyrosine antibody; experiment: Rapid displacement of the ligand analog by the target ligand, off rate (Example 13); type: binding, mouse; conditions: 100 nM Compound 15+100 nM P-Tyr-100; 10 μM phospho-pp60 c-src peptide added
Protocol: A 5 mM solution of Compound 15 was prepared in water. In 150 μl kinase buffer (50 mM Tris, pH 7.5, 10 mM MgCl2, 1 mM EGTA, 0.01% Brij 35, 2 mM DTT, 100 μM ATP) a reaction was made containing 100 nM Compound 15+100 nM P-Tyr-100 monoclonal anti-phosphotyrosine antibody (Cell Signaling Technology, catalog # 9411). The fluorescence was measured over time using a Hitachi F-4500 fluorimeter (Ex 470, Em 510, slit width 5 nm for both wavelengths, PMT gain 700 V). After 15 seconds, 10 μM phospho-pp60 c-src peptide (521-533) (TSTEPQY*QPGENL) from Bachem, catalog # H-3258 was added.

[5] = test system: P-Tyr-100 monoclonal anti-phosphotyrosine antibody; experiment: Competitive immunoassay with Compound 15, anti-phosphotyrosine antibody and phosphotyrosine peptide (Example 12); type: binding, mouse; conditions: 100 nM ligand analog + 100 nM P-Tyr-100, kinase buffer
Protocol: A 5 mM solution of Compound 15 was prepared in water. In 150 μl kinase buffer (50 mM Tris, pH 7.5, 10 mM MgCl2, 1 mM EGTA, 0.01% Brij 35, 2 mM DTT, 100 μM ATP) several separate reactions were made containing: 1) 100 nM Compound 15; 2) 100 nM […]+100 nM P-Tyr-100 monoclonal anti-phosphotyrosine antibody (Cell Signaling Technology, catalog # 9411); 3) 100 nM Compound 15+100 nM P-Tyr-100+10 μM phospho-pp60 c-src peptide (521-533) (TSTEPQY*QPGENL) from Bachem, catalog # H-3258; 4) 100 nM Compound 15+100 nM P-Tyr-100+10 μM phospho-abl peptide (EAIY*AAPFAKKK), custom peptide MPIJ6 from Anaspec. The resulting fluorescence was measured using a Hitachi F-4500 cuvette fluorimeter using 100 μl cuvettes. The F-4500 was set on ‘emission scan’, with an excitation at 470 nm, slit width of 5 nm, emission scan from 485-650 nm, slit width 5 nm, and the PMT gain was at 700 V.

[6] = test system: P-Tyr-100 monoclonal anti-phosphotyrosine antibody; experiment: Z′ factor of displacement assay with Compound 34 (Example 14); type: binding, mouse; conditions: Compound 34+P-Tyr-100 complex, phospho-pp60 c-src peptide
Protocol: A 2 mM solution of Compound 34 was prepared in water. Two working stocks were prepared in kinase buffer (50 mM Tris, pH 7.5, 10 mM MgCl2, 1 mM EGTA, 0.01% Brij 35, 2 mM DTT, 100 μM ATP): 1) 50 nM of Compound 34+100 nM P-Tyr-100 monoclonal anti-phosphotyrosine antibody (Cell Signaling Technology, catalog # 9411); 2) 100 μM phospho-pp60 c-src peptide (521-533) (TSTEPQY*QPGENL) from Bachem, catalog # H-3258. In two 384-well microplates, […] of the 50 nM Compound 34+100 nM P-Tyr-100 complex was added to 96 wells in each plate. To the same wells, 25 μl of either kinase buffer alone (48 wells each plate) or the 100 μM phospho-pp60 c-src peptide in kinase buffer (48 wells each plate) was added. The fluorescence was measured in a Victor^2 microplate reader (Wallac), 1 read/well for 0.2 sec each at 30000V gain, excitation 485+/−17.5 nm, emission 535+/−12.5 nm.
The Z′ statistic was calculated using equation 5 from Zhang, J.-H., Chung, T., D., Y., and Oldenburg, K. R. (1999) A simple statistical parameter for use in evaluation and validation of high throughput screening assays. J. Biomol. Screen. 4, 67-73. […] In other words, there is a 4-fold increase in fluorescent signal after the ligand analog is displaced by the phosphorylated peptide. See, FIG. 6.

[7] = test system: Rabbit anti-Akt polyclonal antibody; experiment: Binding of ethanolamine phosphate ligand analog by anti-Akt antibody (Example 10); conditions: 50 nM compound, antibody zero to 250 nM
Protocol: A 5 mM solution of BODIPY FL ethanolamine phosphate Compound 2 was made in water. A 2.5 mM solution of BODIPY FL ethanolamine (Compound 1) was made in 50% (v/v) DMSO, See Example 1. Rabbit anti-Akt polyclonal antibody (Cell Signaling Technology, catalog # 9611) was serially diluted in 5 μl 50 mM Tris buffer, pH 7.5 in a black, 384-well flat-bottom Packard ProxiPlate preblocked with 0.25% (v/v) Mowiol. After the antibody was serially diluted in the plate, 5 μl of either Compound 2 or Compound 1 was added to the same wells. The final concentration of both compounds in the wells was each 50 nM. The final antibody concentration in the wells was zero to 250 nM. The fluorescence intensity was measured on an EnVision microplate reader (Perkin Elmer), PMT 1 gain 155, PMT 2 gain 191, excitation light 76%, 100 flashes at 9 mM height.

[8] = test system: Compound 15+P-Tyr-100 complex; experiment: Selectivity of displacement of Compound 15 by peptides or proteins (Example 16); type: binding, mouse; conditions: peptides or proteins serially diluted from 80 μM
Protocol: A 5 mM solution of Compound 15 was prepared in water. In kinase buffer (50 mM Tris, pH 7.5, 10 mM MgCl2, 1 mM EGTA, 0.01% Brij 35, 2 mM DTT, 100 μM ATP) 80 μM solutions of six different peptides or proteins were made: 1) phospho-pp60 c-src peptide (521-533) (TSTEPQY*QPGENL) (Bachem, catalog # H-3258); 2) non-phospho-pp60 c-src peptide (521-533) (TSTEPQYQPGENL) (Bachem, catalog # H-3256); 3) phospho-DSIP peptide (WAGGDAS*GE) (SynPep, catalog # 3920); 4) phospho-RRA(pT)VA peptide (RRAT*VA) (Sigma, catalog V248A); 5) beta-casein (Sigma, catalog # C6905); 6) bovine serum albumin (Sigma, catalog # A7284). These peptides or proteins were serially diluted 2-fold in 20 μl in a 0.025% Mowiol-blocked 384-well black Packard OptiPlate. 20 μl of a 2× mix of 50 nM of Compound 15+100 nM P-Tyr-100 (Cell Signaling Technology, catalog # 9411) complex in kinase buffer was added to the wells. The fluorescence intensity was measured on an EnVision microplate reader (Perkin Elmer), PMT 1 gain 155, PMT 2 gain 183, excitation light 60%, 100 flashes at 9 mM height.

Work on 6-FITC phosphotyramide [Compound 19] yielded an Fmax/Fmin [1] of 1.6.

`Nc1ncnc2c1ncn2[C@@H]1O[C@H](COP(=O)(O)OP(=O)(O)OP(=O)(O)O)[C@@H](O)[C@H]1O` [ATP] was tested, and the “displacement of the phosphotyramide ligand analog” value [2] was “does not displace”.

With `O=C(CSc1c(F)c(F)c(C(=O)O)c(-c2c3cc(F)c(=O)cc-3oc3cc(O)c(F)cc23)c1F)NCCc1ccc(OP(=O)(O)O)cc1` [Compound 7, Oregon Green 514 phosphotyramide] the Fmax/Fmin [1] was 4.0.

With `O=C(NCCc1ccc(OP(=O)(O)O)cc1)c1ccc(-c2c3ccc(=O)cc-3oc3cc(O)ccc23)c(C(=O)O)c1` [Compound 8, 5-FAM phosphotyramide] the “performance in displacement assay, 6-position vs 5-position” value ([1]; fluorescence intensity readout) was “superior performance” and the Fmax/Fmin [1] was 1.3.

For `O=C(NCCc1ccc(OP(=O)(O)O)cc1)c1ccc(C(=O)O)c(-c2c3ccc(=O)cc-3oc3cc(O)ccc23)c1` [Compound 9, 6-FAM phosphotyramide], the “binding affinity for the antibody, 6-isomer compared to 5-isomer” value ([1]; compared to Compound 8) was “increased binding affinity”, the “quenching by the antibody, 6-isomer compared to 5-isomer” value ([1]; compared to Compound 8) was “increased quenching” and the Fmax/Fmin [1] was 3.2.

With `CN(C)c1ccc2c(-c3cc(C(=O)NCCc4ccc(OP(=O)([O-])O)cc4)ccc3C(=O)O)c3ccc(=[N+](C)C)cc-3oc2c1` [Compound 12] the “fluorescence intensity change on antibody binding” value ([1]; methods of Example 22) was “little or no analytically useful fluorescence intensity change” and the “fluorescence polarization change on antibody binding” value ([1]; methods of Example 22) was “large fluorescence polarization changes”.

For `O=C(NCCc1ccc(OP(=O)(O)O)cc1)c1ccc(C(=O)O)c(-c2c3cc(F)c(=O)cc-3oc3cc(O)c(F)cc23)c1` [Compound 15, Oregon Green 488 6-phosphotyramide], the Kd [3] was 2 nM, the Fmax/Fmin [1] was 5.4 and the off rate [4] was 0.14 s⁻¹. For the same compound, the “quenching of the reporter molecule on addition of P-Tyr-100 antibody” value [5] was “significantly quenched”.

In the case of `O=C(O)c1cc(NC(=S)NCCc2ccc(OP(=O)(O)O)cc2)ccc1-c1c2ccc(=O)cc-2oc2cc(O)ccc12` [Compound 18, 5-FITC phosphotyramide], the Fmax/Fmin [1] is reported as 1.7.

`NC(=O)C(Cc1ccc(OP(=O)(O)O)cc1)NC(=O)c1ccc(C(=O)O)c(-c2c3cc(F)c(=O)cc-3oc3cc(O)c(F)cc23)c1` (stereo not shown) [Compound 34] was tested, and the Kd [3] was 1.7 nM and the “increase in fluorescent signal after the ligand analog is displaced by the phosphorylated peptide” value [6] was 4 fold.

For “BODIPY FL ethanolamine phosphate [Compound 2]”, the “quenching of ligand analog when bound by the antibody” value [7] was “slightly quenched”.

“TSTEPQY*QPGENL [phospho-pp60 c-src peptide]” was tested, and the “displacement of the ligand analog (Compound 15)” value [8] was “significantly displaces”.
